PubChem BioAssay AID308 (DTP/NCI, 2004)
Where “and” joins values, the source holds several entries; their conditions need not be identical. Equal entries are not always repeated. Toxic doses and inconclusive results are not listed.

Tested on: BDF1 mice, L1210 6-MP/6-TG resistant leukemia ip, survival T/C
Assay: NCI In Vivo Anticancer Drug Screen. Data for tumor model L1210 Leukemia resistant to 6-MP and 6-Thioguanine; NSC 755, NSC 752 (intraperitoneal) in B6D2F1 (BDF1) mice
Conditions: endpoint: mean survival time, higher = longer survival
Experimental: The antitumor activity of compounds was measured in mice bearing transplantable tumors. Survival or tumor size were measured and the results are expressed as the measurement made in the treated group (T) divided by the measurement made in the vehicle treated control group (C). The tumor model used in this assay is L1210 Leukemia resistant to 6-MP and 6-Thioguanine; NSC 755, NSC 752 (intraperitoneal) in B6D2F1 (BDF1) mice

[1] = dose: 6.0 mg/kg/injection, schedule: Q01DX Z (ip), vehicle: carboxymethylcellulose (CMC)
[2] = dose: 7.5 mg/kg/injection, schedule: Q01DX Z (ip), vehicle: carboxymethylcellulose (CMC)
[3] = dose: 15.0 mg/kg/injection, schedule: Q01DX Z (ip), vehicle: carboxymethylcellulose (CMC)
[4] = dose: 25.0 mg/kg/injection, schedule: Q01DX Z (ip), vehicle: saline
[5] = dose: 50.0 mg/kg/injection, schedule: Q01DX Z (ip), vehicle: saline

For `O=C(Nc1ccc(C2=NCCN2)cc1)c1ccc(C(=O)Nc2ccc(C3=NCCN3)cc2)c([N+](=O)[O-])c1`, the T/C (dose: 0.5 mg/kg/injection, schedule: Q01DX Z (ip), vehicle: methylcellulose (MC)) was 98 % of control, the T/C (dose: 1.0 mg/kg/injection, schedule: Q01DX Z (ip), vehicle: methylcellulose (MC)) was 93 % of control and the T/C (dose: 2.0 mg/kg/injection, schedule: Q01DX Z (ip), vehicle: carboxymethylcellulose (CMC)) was 181 % of control. For the same compound, the T/C (dose: 2.0 mg/kg/injection, schedule: Q01DX Z (ip), vehicle: methylcellulose (MC)) was 112 % of control, the T/C (dose: 4.0 mg/kg/injection, schedule: Q01DX Z (ip), vehicle: carboxymethylcellulose (CMC)) was 233 % of control and the T/C [1] was 186 % of control. For the same compound, the T/C (dose: 6.0 mg/kg/injection, schedule: Q01DX Z (ip), vehicle: methylcellulose (MC)) was 224 % of control, the T/C (dose: 8.0 mg/kg/injection, schedule: Q01DX Z (ip), vehicle: carboxymethylcellulose (CMC)) was 124 % of control and 232 % of control and the T/C (dose: 12.0 mg/kg/injection, schedule: Q01DX Z (ip), vehicle: carboxymethylcellulose (CMC)) was 173 % of control. The T/C (dose: 27.0 mg/kg/injection, schedule: Q01DX Z (ip), vehicle: carboxymethylcellulose (CMC)) was 107 % of control, the T/C (dose: 27.0 mg/kg/injection, schedule: Q02DX010 (ip), vehicle: saline) was 224 % of control and the T/C (dose: 60.0 mg/kg/injection, schedule: Q02DX010 (ip), vehicle: saline) was 111 % of control.
`[N-]=[N+]=CC(=O)NCC(=O)NN` was tested, and the T/C (dose: 62.0 mg/kg/injection, schedule: Q01DX Z (ip), vehicle: saline) was 114 % of control.
For `CN(C)c1ccc(/C=C\c2ccnc3ccccc23)cc1`, the T/C (dose: 1.87 mg/kg/injection, schedule: Q01DX Z (ip), vehicle: carboxymethylcellulose (CMC)) was 106 % of control, the T/C (dose: 3.75 mg/kg/injection, schedule: Q01DX Z (ip), vehicle: carboxymethylcellulose (CMC)) was 97 % of control and the T/C [2] was 100 % of control. For the same compound, the T/C [3] was 91 % of control.
With `CNS(=O)(=O)c1ncnc2nc[nH]c12` the T/C (dose: 13.0 mg/kg/injection, schedule: Q01DX Z (ip), vehicle: carboxymethylcellulose (CMC)) was 114 % of control, the T/C (dose: 32.0 mg/kg/injection, schedule: Q01DX Z (ip), vehicle: carboxymethylcellulose (CMC)) was 114 % of control and the T/C (dose: 47.0 mg/kg/injection, schedule: Q01DX Z (ip), vehicle: carboxymethylcellulose (CMC)) was 123 % of control. For the same compound, the T/C (dose: 58.0 mg/kg/injection, schedule: Q01DX Z (ip), vehicle: carboxymethylcellulose (CMC)) was 108 % of control, the T/C (dose: 70.6 mg/kg/injection, schedule: Q01DX Z (ip), vehicle: carboxymethylcellulose (CMC)) was 117 % of control and the T/C (dose: 107.0 mg/kg/injection, schedule: Q01DX Z (ip), vehicle: carboxymethylcellulose (CMC)) was 113 % of control. For the same compound, the T/C (dose: 160.5 mg/kg/injection, schedule: Q01DX Z (ip), vehicle: carboxymethylcellulose (CMC)) was 105 % of control.
`C=C(C)CSc1ncnc2nc[nH]c12` was tested, and the T/C (dose: 62.0 mg/kg/injection, schedule: Q01DX015 (ip), vehicle: other) was 109 % of control, the T/C (dose: 125.0 mg/kg/injection, schedule: Q01DX015 (ip), vehicle: other) was 95 % of control and the T/C (dose: 250.0 mg/kg/injection, schedule: Q01DX015 (ip), vehicle: other) was 100 % of control.
In the case of `OCC1OC(n2cnc3c(=S)nc[nH]c32)CC1O` (stereo not given), the T/C (dose: 62.0 mg/kg/injection, schedule: Q01DX015 (ip), vehicle: carboxymethylcellulose (CMC)) is reported as 98 % of control, the T/C (dose: 125.0 mg/kg/injection, schedule: Q01DX015 (ip), vehicle: carboxymethylcellulose (CMC)) is reported as 96 % of control and the T/C (dose: 250.0 mg/kg/injection, schedule: Q01DX015 (ip), vehicle: carboxymethylcellulose (CMC)) is reported as 93 % of control.
`COS(C)(=O)=O` was tested, and the T/C [4] was 105 % of control, the T/C [5] was 114 % of control and the T/C (dose: 75.0 mg/kg/injection, schedule: Q01DX Z (ip), vehicle: saline) was 116 % of control. The T/C (dose: 100.0 mg/kg/injection, schedule: Q01DX Z (ip), vehicle: saline) was 106 % of control.
For `O[C@H](CN1CC1)[C@@H](O)CN1CC1`, the T/C (dose: 0.25 mg/kg/injection, schedule: Q01DX Z (ip), vehicle: saline) was 253 % of control, the T/C (dose: 1.0 mg/kg/injection, schedule: Q01DX Z (ip), vehicle: saline) was 91 % of control and the T/C (dose: 90.0 micrograms/kg/injection, schedule: Q01DX Z (ip), vehicle: saline) was 156 % of control. The T/C (dose: 180.0 micrograms/kg/injection, schedule: Q01DX Z (ip), vehicle: saline) was 121 % of control and the T/C (dose: 370.0 micrograms/kg/injection, schedule: Q01DX Z (ip), vehicle: saline) was 120 % of control.
`Nc1nc(=S)c2[nH]cnc2[nH]1` was tested, and the T/C (dose: 0.37 mg/kg/injection, schedule: Q01DX Z (ip), vehicle: carboxymethylcellulose (CMC)) was 123 % of control, the T/C (dose: 0.5 mg/kg/injection, schedule: Q01DX Z (ip), vehicle: carboxymethylcellulose (CMC)) was 92 % of control and the T/C (dose: 0.75 mg/kg/injection, schedule: Q01DX Z (ip), vehicle: carboxymethylcellulose (CMC)) was 101 % of control. For the same compound, the T/C (dose: 1.0 mg/kg/injection, schedule: Q01DX Z (ip), vehicle: carboxymethylcellulose (CMC)) was 103 % of control, the T/C (dose: 1.25 mg/kg/injection, schedule: Q01DX Z (ip), vehicle: carboxymethylcellulose (CMC)) was 104 % of control and the T/C (dose: 2.5 mg/kg/injection, schedule: Q01DX Z (ip), vehicle: carboxymethylcellulose (CMC)) was 95 % of control.
With `Nc1nc(=S)c2ncn(C3OC(CO)CC3O)c2[nH]1` (stereo not given) the T/C (dose: 1.5 mg/kg/injection, schedule: Q01DX009 (ip), vehicle: other) was 99 % of control, the T/C (dose: 3.0 mg/kg/injection, schedule: Q01DX009 (ip), vehicle: other) was 99 % of control and the T/C (dose: 6.0 mg/kg/injection, schedule: Q01DX009 (ip), vehicle: other) was 107 % of control. The T/C (dose: 12.5 mg/kg/injection, schedule: Q01DX015 (ip), vehicle: other) was 87 % of control.
In the case of `NS(=O)(=O)c1ncnc2nc[nH]c12`, the T/C [1] is reported as 122 % of control, the T/C [4] is reported as 112 % of control and the T/C [5] is reported as 96 % of control.
In the case of `Clc1ccc(C(c2ccccc2Cl)C(Cl)Cl)cc1` (stereo not given), the T/C (dose: 23.0 mg/kg/injection, schedule: Q01DX Z (sc), vehicle: steriod suspending solution) is reported as 94 % of control, the T/C (dose: 46.0 mg/kg/injection, schedule: Q01DX Z (sc), vehicle: steriod suspending solution) is reported as 97 % of control and the T/C (dose: 93.0 mg/kg/injection, schedule: Q01DX Z (sc), vehicle: steriod suspending solution) is reported as 103 % of control. For the same compound, the T/C (dose: 187.0 mg/kg/injection, schedule: Q01DX Z (sc), vehicle: steriod suspending solution) was 101 % of control, the T/C (dose: 375.0 mg/kg/injection, schedule: Q01DX Z (sc), vehicle: steriod suspending solution) was 104 % of control and the T/C (dose: 500.0 mg/kg/injection, schedule: Q01DX Z (sc), vehicle: steriod suspending solution) was 100 % of control. For the same compound, the T/C (dose: 750.0 mg/kg/injection, schedule: Q01DX Z (sc), vehicle: steriod suspending solution) was 96 % of control and the T/C (dose: 1000.0 mg/kg/injection, schedule: Q01DX Z (sc), vehicle: steriod suspending solution) was 98 % of control.
With `CCCSc1ncnc2nc[nH]c12` the T/C (dose: 43.5 mg/kg/injection, schedule: Q01DX Z (ip), vehicle: other) was 98 % of control, the T/C (dose: 87.0 mg/kg/injection, schedule: Q01DX Z (ip), vehicle: other) was 105 % of control and the T/C (dose: 175.0 mg/kg/injection, schedule: Q01DX Z (ip), vehicle: other) was 91 % of control.
`Cc1c(O)ccc(=O)n1O` was tested, and the T/C (dose: 73.0 mg/kg/injection, schedule: Q01DX Z (ip), vehicle: other) was 108 % of control and the T/C (dose: 165.0 mg/kg/injection, schedule: Q01DX Z (ip), vehicle: other) was 103 % of control.
In the case of `CC(=O)O[C@]1(C(C)=O)CC[C@H]2[C@@H]3C[C@H](C)C4=CC(=O)C=C[C@]4(C)[C@@]3(F)[C@@H](O)C[C@@]21C`, the T/C (dose: 37.5 mg/kg/injection, schedule: Q01DX Z (sc), vehicle: steriod suspending solution) is reported as 101 % of control and the T/C (dose: 100.0 mg/kg/injection, schedule: Q01DX Z (sc), vehicle: steriod suspending solution) is reported as 89 % of control.
With `Cn1cnc([N+](=O)[O-])c1Sc1nc(N)nc2nc[nH]c12` the T/C [2] was 95 % of control, the T/C (dose: 10.0 mg/kg/injection, schedule: Q01DX Z (ip), vehicle: carboxymethylcellulose (CMC)) was 92 % of control and the T/C [3] was 90 % of control. The T/C (dose: 20.0 mg/kg/injection, schedule: Q01DX Z (ip), vehicle: carboxymethylcellulose (CMC)) was 89 % of control.
For `CC(C)Cn1cnc2c(=S)nc(N)[nH]c21`, the T/C (dose: 9.0 mg/kg/injection, schedule: Q01DX015 (ip), vehicle: other) was 107 % of control, the T/C (dose: 14.0 mg/kg/injection, schedule: Q01DX015 (ip), vehicle: other) was 106 % of control and the T/C (dose: 21.0 mg/kg/injection, schedule: Q01DX015 (ip), vehicle: other) was 102 % of control. The T/C (dose: 36.0 mg/kg/injection, schedule: Q01DX015 (ip), vehicle: other) was 95 % of control.
